pIC50, pKi: −log10 of the molar value.
What was measured:
[1] = DRUGMATRIX: GABAA, Chloride Channel, TBOB radioligand binding (ligand: [3H] TBOB); type: cell membranes, Rattus norvegicus, Wistar, Cerebral cortex, Membrane; conditions: Not Active = under 50% inhibition at 10 µM
[2] = DRUGMATRIX: Phosphodiesterase PDE4 enzyme inhibition (substrate: [3H]cAMP + cAMP); conditions: u-937; Not Active = under 50% inhibition at 10 µM
Neutrophil elastase = target: T1, Neutrophil elastase (Homo sapiens, UniProt P08246); type: tissue-based;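 also: inhibition of neutrophil elastase enzyme activity, measured with a p-nitroanilide-linked peptide substrate; in other assays of this panel Not Active means under 50% inhibition at 10 µM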
T1 sequence (P08246 whole entry): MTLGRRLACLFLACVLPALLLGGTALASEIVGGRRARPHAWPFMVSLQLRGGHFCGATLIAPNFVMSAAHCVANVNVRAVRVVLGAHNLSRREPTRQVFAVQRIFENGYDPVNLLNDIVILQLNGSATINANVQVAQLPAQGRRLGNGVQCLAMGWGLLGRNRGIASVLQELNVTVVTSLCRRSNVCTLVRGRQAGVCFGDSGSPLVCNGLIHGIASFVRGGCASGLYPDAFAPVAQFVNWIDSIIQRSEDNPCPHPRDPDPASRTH

[3] = target: 5-hydroxytryptamine receptor 2B (Homo sapiens, UniProt P41595); type: cell membranes, CHO-K1, Membrane; conditions: for IC50: cho-k1; for pIC50: read-out: IC50; for pKi: read-out: Ki; as to all read-outs here: in other assays of this panel Not Active means under 50% inhibition at 10 µM
Chain of 5-hydroxytryptamine receptor 2B (P41595 whole entry): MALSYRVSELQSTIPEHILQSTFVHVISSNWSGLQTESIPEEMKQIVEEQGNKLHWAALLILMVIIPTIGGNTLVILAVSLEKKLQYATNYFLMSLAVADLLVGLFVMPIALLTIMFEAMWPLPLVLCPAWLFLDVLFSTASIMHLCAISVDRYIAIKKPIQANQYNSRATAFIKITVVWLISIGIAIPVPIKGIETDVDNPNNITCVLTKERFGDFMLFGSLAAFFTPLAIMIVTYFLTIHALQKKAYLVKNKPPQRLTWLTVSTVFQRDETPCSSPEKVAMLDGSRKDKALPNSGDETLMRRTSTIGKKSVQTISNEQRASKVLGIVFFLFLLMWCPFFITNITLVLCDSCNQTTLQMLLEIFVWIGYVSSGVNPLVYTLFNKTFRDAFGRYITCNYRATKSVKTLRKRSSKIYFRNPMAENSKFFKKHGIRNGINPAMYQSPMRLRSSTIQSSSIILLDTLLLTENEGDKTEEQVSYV

[4] = DRUGMATRIX: GABAA, Flunitrazepam, Central radioligand binding (ligand: [3H] Flunitrazepam); type: cell membranes, Rattus norvegicus, Wistar, Brain, Membrane; conditions: Not Active = under 50% inhibition at 10 µM
Interstitial collagenase = target: T2, Interstitial collagenase (Homo sapiens, UniProt P03956); assay: biochemical; type: tissue-based, Rheumatoid synovial fibroblasts;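 also: MMP-1 enzyme inhibition assay using a peptide substrate; in other assays of this panel Not Active means under 50% inhibition at 10 µM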
T2 sequence (P03956 whole entry): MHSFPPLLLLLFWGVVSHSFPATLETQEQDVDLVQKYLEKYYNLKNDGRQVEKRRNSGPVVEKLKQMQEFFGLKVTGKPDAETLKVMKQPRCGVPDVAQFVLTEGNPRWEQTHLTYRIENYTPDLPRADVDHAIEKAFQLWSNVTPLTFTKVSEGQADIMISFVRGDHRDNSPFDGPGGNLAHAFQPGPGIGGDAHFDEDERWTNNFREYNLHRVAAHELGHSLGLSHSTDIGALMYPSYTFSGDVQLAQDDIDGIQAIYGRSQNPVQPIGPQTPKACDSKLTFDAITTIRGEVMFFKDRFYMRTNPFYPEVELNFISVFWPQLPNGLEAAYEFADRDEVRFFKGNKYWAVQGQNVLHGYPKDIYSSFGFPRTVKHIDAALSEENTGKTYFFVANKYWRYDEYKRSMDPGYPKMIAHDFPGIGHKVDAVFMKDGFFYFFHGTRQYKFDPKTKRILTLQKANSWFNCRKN

[5] = target: T3, Neuropeptide Y receptor type 2 (Homo sapiens, UniProt P49146); type: cell membranes, Membrane; conditions: kan-ts; also: in other assays of this panel Not Active means under 50% inhibition at 10 µM
T3 sequence (P49146 whole entry): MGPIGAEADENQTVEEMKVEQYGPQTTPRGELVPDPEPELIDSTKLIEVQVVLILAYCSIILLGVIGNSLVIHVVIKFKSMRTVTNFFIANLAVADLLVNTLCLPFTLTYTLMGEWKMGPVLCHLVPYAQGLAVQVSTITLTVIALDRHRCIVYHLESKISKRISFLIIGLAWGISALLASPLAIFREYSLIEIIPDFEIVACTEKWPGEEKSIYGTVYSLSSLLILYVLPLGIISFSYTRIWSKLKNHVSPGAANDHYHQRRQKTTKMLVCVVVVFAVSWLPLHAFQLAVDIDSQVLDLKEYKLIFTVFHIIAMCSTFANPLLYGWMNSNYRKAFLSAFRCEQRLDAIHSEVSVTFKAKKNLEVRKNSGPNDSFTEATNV

Compound: C[C@]12CC[C@@H]3c4ccc(O)cc4CC[C@H]3[C@@H]1C[C@@H](O)[C@@H]2O [ESTRIOL]
- IC50 [1]: Not Active
- Ki [1]: Not Active
- IC50 [2]: Not Active
- Ki [2]: Not Active
- IC50 (Neutrophil elastase): Not Active
- IC50 [3]: Not Active
- IC50 [4]: Not Active
- Ki [4]: Not Active
- IC50 (Interstitial collagenase): Not Active
- IC50 [5]: Not Active

Compound: O=C(O)P(=O)(O)O [FOSCARNET]
- IC50 [1]: Not Active
- Ki [1]: Not Active
- IC50 [2]: Not Active
- Ki [2]: Not Active
- IC50 (Neutrophil elastase): Not Active
- IC50 [3]: Not Active
- IC50 [4]: Not Active
- Ki [4]: Not Active
- IC50 (Interstitial collagenase): Not Active
- IC50 [5]: Not Active

Compound: CC1=NN(c2ccccc2)C(=O)C1 [EDARAVONE]
- IC50 [1]: Not Active
- Ki [1]: Not Active
- IC50 [2]: Not Active
- Ki [2]: Not Active
- IC50 (Neutrophil elastase): Not Active
- IC50 [3]: Not Active
- IC50 [4]: Not Active
- Ki [4]: Not Active
- IC50 (Interstitial collagenase): Not Active
- IC50 [5]: Not Active

Compound: CCCNC(C)C(=O)Nc1ccccc1C (configuration not stated) [PRILOCAINE]
- IC50 [1]: Not Active
- Ki [1]: Not Active
- IC50 [2]: Not Active
- Ki [2]: Not Active
- IC50 (Neutrophil elastase): Not Active
- IC50 [3]: Not Active
- IC50 [4]: Not Active
- Ki [4]: Not Active
- IC50 (Interstitial collagenase): Not Active
- IC50 [5]: Not Active

Compound: C[C@@H]1C/C=C/C=C/C=C/C=C/[C@H](O[C@@H]2O[C@H](C)[C@@H](O)[C@H](N)[C@@H]2O)C[C@@H]2O[C@](O)(C[C@@H](O)C[C@H]3O[C@@H]3/C=C/C(=O)O1)C[C@H](O)[C@H]2C(=O)O [NATAMYCIN]
- IC50 [1]: Not Active
- Ki [1]: Not Active
- IC50 [2]: Not Active
- Ki [2]: Not Active
- IC50 (Neutrophil elastase): Not Active
- IC50 [3]: Not Active
- IC50 [4]: Not Active
- Ki [4]: Not Active
- IC50 (Interstitial collagenase): Not Active
- IC50 [5]: Not Active

Compound: C[C@H]1O[C@H](O[C@H]2[C@H](O)[C@@H](O)[C@@H](O[C@H]3[C@H](O)[C@@H](O)C(O)O[C@@H]3CO)O[C@@H]2CO)[C@H](O)[C@@H](O)[C@@H]1N[C@H]1C=C(CO)[C@@H](O)[C@H](O)[C@H]1O (some centres not stated) [ACARBOSE]
- IC50 [1]: Not Active
- Ki [1]: Not Active
- IC50 [2]: Not Active
- Ki [2]: Not Active
- IC50 (Neutrophil elastase): Not Active
- IC50 [3]: Not Active
- IC50 [4]: Not Active
- Ki [4]: Not Active
- IC50 (Interstitial collagenase): Not Active
- IC50 [5]: Not Active

Compound: CN(C)C(=N)NC(=N)N [METFORMIN]
- IC50 [1]: Not Active
- Ki [1]: Not Active
- IC50 [2]: Not Active
- Ki [2]: Not Active
- IC50 (Neutrophil elastase): Not Active
- IC50 [3]: Not Active
- IC50 [4]: Not Active
- Ki [4]: Not Active
- IC50 (Interstitial collagenase): Not Active
- IC50 [5]: Not Active

Compound: CCc1ccc(CCOc2ccc(CC3SC(=O)NC3=O)cc2)nc1 (configuration not stated) [PIOGLITAZONE]
- IC50 [1]: Not Active
- Ki [1]: Not Active
- IC50 [2]: Not Active
- Ki [2]: Not Active
- IC50 (Neutrophil elastase): Not Active
- IC50 [3]: Not Active
- IC50 [4]: Not Active
- Ki [4]: Not Active
- IC50 (Interstitial collagenase): Not Active
- IC50 [5]: Not Active

Compound: CN1CCN(C(c2ccccc2)c2ccccc2)CC1 [CYCLIZINE]
- IC50 [1]: Not Active
- Ki [1]: Not Active
- IC50 [2]: Not Active
- Ki [2]: Not Active
- IC50 (Neutrophil elastase): Not Active
- pIC50 [3]: 6.43
- pKi [3]: 6.62
- IC50 [4]: Not Active
- Ki [4]: Not Active
- IC50 (Interstitial collagenase): Not Active
- IC50 [5]: Not Active

Compound: Cn1c(=O)c2c(ncn2C)n(C)c1=O [CAFFEINE]
- IC50 [1]: Not Active
- Ki [1]: Not Active
- IC50 [2]: Not Active
- Ki [2]: Not Active
- IC50 (Neutrophil elastase): Not Active
- IC50 [3]: Not Active
- IC50 [4]: Not Active
- Ki [4]: Not Active
- IC50 (Interstitial collagenase): Not Active
- IC50 [5]: Not Active

Compound: COc1cc(OC)c(C(=O)CCCN2CCCC2)c(OC)c1 [BUFLOMEDIL]
- IC50 [1]: Not Active
- Ki [1]: Not Active
- IC50 [2]: Not Active
- Ki [2]: Not Active
- IC50 (Neutrophil elastase): Not Active
- IC50 [3]: Not Active
- IC50 [4]: Not Active
- Ki [4]: Not Active
- IC50 (Interstitial collagenase): Not Active
- IC50 [5]: Not Active

Compound: C[C@]12CC[C@H]3[C@@H](CCC4=CC(=O)CC[C@@H]43)[C@@H]1CC[C@@H]2O [NANDROLONE]
- IC50 [1]: Not Active
- Ki [1]: Not Active
- IC50 [2]: Not Active
- Ki [2]: Not Active
- IC50 (Neutrophil elastase): Not Active
- IC50 [3]: Not Active
- IC50 [4]: Not Active
- Ki [4]: Not Active
- IC50 (Interstitial collagenase): Not Active
- IC50 [5]: Not Active

Compound: CS(=O)(=O)Nc1ccc([N+](=O)[O-])cc1Oc1ccccc1 [NIMESULIDE]
- IC50 [1]: Not Active
- Ki [1]: Not Active
- IC50 [2]: Not Active
- Ki [2]: Not Active
- IC50 (Neutrophil elastase): Not Active
- IC50 [3]: Not Active
- IC50 [4]: Not Active
- Ki [4]: Not Active
- pIC50 (Interstitial collagenase; read-out: IC50): 4.63
- IC50 [5]: Not Active

Compound: CN1CCC(=C2c3ccccc3CC(=O)c3sccc32)CC1 [KETOTIFEN]
- IC50 [1]: Not Active
- Ki [1]: Not Active
- IC50 [2]: Not Active
- Ki [2]: Not Active
- IC50 (Neutrophil elastase): Not Active
- pIC50 [3]: 7.34
- pKi [3]: 7.54
- IC50 [4]: Not Active
- Ki [4]: Not Active
- IC50 (Interstitial collagenase): Not Active
- IC50 [5]: Not Active

Compound: NC12CC3CC(CC(C3)C1)C2 [AMANTADINE]
- IC50 [1]: Not Active
- Ki [1]: Not Active
- IC50 [2]: Not Active
- Ki [2]: Not Active
- IC50 (Neutrophil elastase): Not Active
- IC50 [3]: Not Active
- IC50 [4]: Not Active
- Ki [4]: Not Active
- IC50 (Interstitial collagenase): Not Active
- IC50 [5]: Not Active

Compound: NC(=O)N1c2ccccc2CC(=O)c2ccccc21 [OXCARBAZEPINE]
- IC50 [1]: Not Active
- Ki [1]: Not Active
- IC50 [2]: Not Active
- Ki [2]: Not Active
- IC50 (Neutrophil elastase): Not Active
- IC50 [3]: Not Active
- IC50 [4]: Not Active
- Ki [4]: Not Active
- IC50 (Interstitial collagenase): Not Active
- IC50 [5]: Not Active

From ChEMBL document CHEMBL1909046, “DrugMatrix in vitro pharmacology data”
